We go through 3 molecules from ChEMBL document CHEMBL5360532, “Current scenario of quinolone hybrids with potential antibacterial activity against ESKAPE pathogens” (Eur J Med Chem, 2023).

Each structure is given as a SMILES string. Converted amounts (≈) assume the structure as drawn. Bounds are passed on as bounds.

Holding throughout (type): functional
Assay [1] concerns Mycobacterium tuberculosis. Description: Antimycobacterial activity against multidrug resistant Mycobacterium tuberculosis assessed as bacterial growth inhibition by agar cup diffusion assay.
Assay [2] concerns Mycobacterium tuberculosis. Description: Antimycobacterial activity against extensive drug resistant Mycobacterium tuberculosis assessed as bacterial growth inhibition by agar cup diffusion assay.
Assay [3] deals with Mycobacterium tuberculosis. Nature of the assay: Potency index, ratio of ciprofloxacin MIC to test compound MIC for antimycobacterial activity against multidrug resistant Mycobacterium tuberculosis assessed as bacterial growth inhibition by LJ slant assay.
Assay [4] has as its system Mycobacterium tuberculosis. Description: Potency index, ratio of ciprofloxacin MIC to test compound MIC for antimycobacterial activity against extensive drug resistant Mycobacterium tuberculosis assessed as bacterial growth inhibition by LJ slant assay.

Take `C=CCn1c(SCC(=O)N2CCN(c3cc4c(cc3F)c(=O)c(C(=O)O)cn4C3CC3)CC2)nnc1-c1ccccc1`: the MIC in assay [1] and in assay [2] was 4 µg/mL (≈ 6.8 µM) throughout.
In the case of `O=c1c(-c2nnc(S)o2)cn(C2CC2)c2cc(N3CCNCC3)c(F)cc12`, the Ratio entry in assay [3] and in assay [4] was “>=32” throughout.
Take `O=C(CN1CCN(c2cc3c(cc2F)c(=O)c(C(=O)O)cn3C2CC2)CC1)Nc1nnc(-c2ccccc2)s1`: the MIC in assay [1] and in assay [2] was 8 µg/mL (≈ 14.6 µM) in each case.
